Among the data in patent publication US8809341B2, “2,4-pyrimidinediamine compounds and uses as anti-proliferative agents” (Rigel Pharmaceuticals, Inc., priority 2003, dated 2014) are IC50 values, retold here.

Type in all cases: cell-based
The test system of one assay is HCT116. Nature of the assay: in vitro antiproliferation assay, HCT116 (colon). To be noted: HCT116 (colon); read-out: HCT116. Here is the method: The IC50 values of various compounds against a various different tumor cell lines were determined using standard in vitro antiproliferation assays. The tumor cell lines tested were as follows: A549 (lung); H1299 (lung), ACHN (kidney/p53 wt), CAKI (renal cell carcinoma), NCI-H460 (lung); HCT116 (colon/p53w0; HELA (cervix/p53 wt), HUH7 (liver/p53 wt), HUVEC (primary endothelial), LNCAP (prostate), HT-29 (colon); MCF-7 (breast); MCF-7 (breast/ER positive), MDA MB435S (breast); MDA MB231 (breast/ER negative), DU145 (prostate); BxPC-3 (pancreatic); SKOV-3 (ovarian); HepG2 (hepatic), NDHF primary normal human dermal fibroblast), SKMEL28 (breast/p53mut), SKMEL5 (breast/p53 wt), U20S (bone) and PC3 (prostate). […] A blank indicates the specified compound was not tested against the specified cell line.
Many of the compounds were tested against other cell lines. Their activity is reported in TABLE 15, below, where +”, “−”, “−/+” or “+/−” values are as described for TABLES 1-14. Where the cell line includes a value in a parenthetical, the value indicates the seeding density at which the assay was performed

Another assay has as its system A549 cells. Nature of the assay: in vitro antiproliferation assay, A549 (lung). The conditions noted are these: A549 (lung) cells. The method, boiled down: (§1)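 IC50 values came from standard antiproliferation testing in cultured tumour cells; the A549 and H1299 lines are of lung origin.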
The next assay deals with H1299 cells. Nature of the assay: in vitro antiproliferation assay, H1299 (lung). The conditions noted are these: H1299 (lung) cells. The method in brief: as §1

For `CC1(C)Oc2ccc(Nc3nc(Nc4cccc(O)c4)ncc3F)cc2NC1=O` [compound 356], in the assay on HCT116, the IC50 was over 20 µM.

As to `Cc1cc(Nc2ncc(F)c(Nc3ccc4c(c3)NC(=O)C(C)(C)O4)n2)cc(Cl)c1O` [compound 358], in the assay on HCT116, the IC50 was under 20 µM. With `CC(=O)N1CCN(c2ccc(Nc3ncc(F)c(Nc4ccc5c(n4)NC(=O)CO5)n3)cc2)CC1` [compound 419], the IC50 in the assay on HCT116 is at most 20 µM. As to `CCCn1ncc2cc(Nc3ncc(F)c(Nc4ccc(Cl)c(Cl)c4)n3)ccc21` [compound 1075], the IC50 with A549 cells and in the assay on H1299 cells was over 20 µM each time.

In the case of `CCCn1ncc2cc(Nc3ncc(F)c(Nc4ccc5c(c4)NC(=O)C(C)(C)O5)n3)ccc21` [compound 1076], the IC50 in the assay on A549 cells and in the assay with H1299 cells was at most 20 µM throughout. In the case of `CCCn1ncc2ccc(Nc3ncc(F)c(Nc4ccc(F)c(OC)c4)n3)cc21` [compound 1077], the IC50 in the assay on A549 cells and in the assay with H1299 cells was at most 20 µM in each case. On to `CCCn1ncc2ccc(Nc3ncc(F)c(Nc4ccc5c(c4)NC(=O)C(C)(C)O5)n3)cc21` [compound 1080], for which the IC50 with A549 cells and with H1299 cells was at most 20 µM throughout. With `CCCCn1ncc2cc(Nc3ncc(F)c(Nc4ccc(OC)c(Cl)c4)n3)ccc21` [compound 1082], the results for the IC50 with A549 cells and in the assay with H1299 cells were at most 20 µM and over 20 µM, respectively. As for `CCCCn1ncc2cc(Nc3ncc(F)c(Nc4ccc(Cl)c(Cl)c4)n3)ccc21` [compound 1083], the IC50 with A549 cells and in the assay with H1299 cells was at most 20 µM throughout. Turning to `CCCCn1ncc2cc(Nc3ncc(F)c(Nc4ccc5c(c4)NC(=O)C(C)(C)O5)n3)ccc21` [compound 1084], the IC50 with A549 cells and in the assay on H1299 cells was at most 20 µM throughout. In the case of `CCCCn1ncc2cc(Nc3ncc(F)c(Nc4ccc(F)c(OC)c4)n3)ccc21` [compound 1085], the IC50 in the assay on A549 cells and in the assay with H1299 cells was at most 20 µM in each case. For `CCCCn1ncc2ccc(Nc3ncc(F)c(Nc4ccc(OC)c(Cl)c4)n3)cc21` [compound 1086], the IC50 with A549 cells and in the assay on H1299 cells was at most 20 µM throughout. Take `CCCCn1ncc2ccc(Nc3ncc(F)c(Nc4ccc(Cl)c(Cl)c4)n3)cc21` [compound 1087]: the IC50 in the assay on A549 cells and with H1299 cells was at most 20 µM in each case. With `CCCCn1ncc2ccc(Nc3ncc(F)c(Nc4ccc5c(c4)NC(=O)C(C)(C)O5)n3)cc21` [compound 1088], the IC50 in the assay on A549 cells and with H1299 cells was at most 20 µM in each case. As for `CCCCn1ncc2ccc(Nc3ncc(F)c(Nc4ccc(F)c(OC)c4)n3)cc21` [compound 1089], the IC50 with A549 cells and in the assay on H1299 cells was at most 20 µM in each case. For `COc1ccc(Nc2nc(Nc3ccc4c(cnn4CC4CCCCC4)c3)ncc2F)cc1Cl` [compound 1090], the IC50 with A549 cells and with H1299 cells was at most 20 µM throughout. Consider `Fc1cnc(Nc2ccc3c(cnn3CC3CCCCC3)c2)nc1Nc1ccc(Cl)c(Cl)c1` [compound 1091], for which the IC50 in the assay with A549 cells and in the assay on H1299 cells was over 20 µM throughout. Take `CC1(C)Oc2ccc(Nc3nc(Nc4ccc5c(cnn5C(C)(C)CC5CCCCC5)c4)ncc3F)cc2NC1=O` [compound 1092]: the IC50 in the assay with A549 cells and in the assay on H1299 cells was at most 20 µM each time. For the compound `COc1cc(Nc2nc(Nc3ccc4c(cnn4C(C)(C)CC4CCCCC4)c3)ncc2F)ccc1F` [compound 1093], the IC50 with A549 cells and with H1299 cells was at most 20 µM each time. For `COc1ccc(Nc2nc(Nc3ccc4cnn(C(C)(C)CC5CCCCC5)c4c3)ncc2F)cc1Cl` [compound 1094], the IC50 with A549 cells and in the assay on H1299 cells was at most 20 µM each time. `CC(C)(CC1CCCCC1)n1ncc2ccc(Nc3ncc(F)c(Nc4ccc(Cl)c(Cl)c4)n3)cc21` [compound 1095]: the IC50 in the assay on A549 cells and in the assay with H1299 cells was at most 20 µM throughout.

Regarding `CC1(C)Oc2ccc(Nc3nc(Nc4ccc5cnn(C(C)(C)CC6CCCCC6)c5c4)ncc3F)cc2NC1=O` [compound 1096], the IC50 in the assay on A549 cells and in the assay with H1299 cells was at most 20 µM in each case. Turning to `COc1cc(Nc2nc(Nc3ccc4cnn(C(C)(C)CC5CCCCC5)c4c3)ncc2F)ccc1F` [compound 1097], the IC50 in the assay on A549 cells is over 20 µM; in the assay with H1299 cells, at most 20 µM. Consider `COc1ccc(Nc2nc(Nc3ccc4c(cnn4C(C)(C)CC4CCC4)c3)ncc2F)cc1Cl` [compound 1098], for which the IC50 with A549 cells is over 20 µM; in the assay with H1299 cells, at most 20 µM. `CC(C)(CC1CCC1)n1ncc2cc(Nc3ncc(F)c(Nc4ccc(Cl)c(Cl)c4)n3)ccc21` [compound 1099]: the IC50 in the assay with A549 cells and in the assay with H1299 cells was at most 20 µM throughout.

As to `CC1(C)Oc2ccc(Nc3nc(Nc4ccc5c(cnn5C(C)(C)CC5CCC5)c4)ncc3F)cc2NC1=O` [compound 1100], the IC50 in the assay on A549 cells and in the assay on H1299 cells was at most 20 µM in each case. For `COc1cc(Nc2nc(Nc3ccc4c(cnn4C(C)(C)CC4CCC4)c3)ncc2F)ccc1F` [compound 1101], the IC50 in the assay with A549 cells and in the assay on H1299 cells was at most 20 µM in each case. For the compound `COc1ccc(Nc2nc(Nc3ccc4cnn(C(C)(C)CC5CCC5)c4c3)ncc2F)cc1Cl` [compound 1102], the IC50 in the assay with A549 cells and with H1299 cells was at most 20 µM in each case. Consider `CC1(C)Oc2ccc(Nc3nc(Nc4ccc5cnn(C(C)(C)CC6CCC6)c5c4)ncc3F)cc2NC1=O` [compound 1104], for which the IC50 in the assay with A549 cells and in the assay on H1299 cells was at most 20 µM each time.

As to `COc1cc(Nc2nc(Nc3ccc4cnn(C(C)(C)CC5CCC5)c4c3)ncc2F)ccc1F` [compound 1105], the IC50 with A549 cells and in the assay with H1299 cells was at most 20 µM in each case. As to `COc1ccc(Nc2nc(Nc3ccc4c(cnn4C(C)(C)CC4CC4)c3)ncc2F)cc1Cl` [compound 1106], the IC50 with A549 cells and in the assay on H1299 cells was at most 20 µM each time. With `CC(C)(CC1CC1)n1ncc2cc(Nc3ncc(F)c(Nc4ccc(Cl)c(Cl)c4)n3)ccc21` [compound 1107], the IC50 in the assay with A549 cells and in the assay with H1299 cells was over 20 µM each time. Consider `COc1cc(Nc2nc(Nc3ccc4c(cnn4C(C)(C)CC4CC4)c3)ncc2F)ccc1F` [compound 1109], for which the IC50 with A549 cells and in the assay with H1299 cells was at most 20 µM throughout. As to `COc1ccc(Nc2nc(Nc3ccc4cnn(C(C)(C)CC5CC5)c4c3)ncc2F)cc1Cl` [compound 1110], the IC50 in the assay on A549 cells and in the assay with H1299 cells was at most 20 µM throughout. For `CC(C)(CC1CC1)n1ncc2ccc(Nc3ncc(F)c(Nc4ccc(Cl)c(Cl)c4)n3)cc21` [compound 1111], the IC50 in the assay on A549 cells and in the assay with H1299 cells was at most 20 µM throughout.

Consider `CC1(C)Oc2ccc(Nc3nc(Nc4ccc5cnn(C(C)(C)CC6CC6)c5c4)ncc3F)cc2NC1=O` [compound 1112], for which the IC50 in the assay with A549 cells and in the assay on H1299 cells was at most 20 µM in each case. Regarding `COc1cc(Nc2nc(Nc3ccc4cnn(C(C)(C)CC5CC5)c4c3)ncc2F)ccc1F` [compound 1113], the IC50 with A549 cells and with H1299 cells was at most 20 µM throughout. For `COc1cc(C)c(Nc2ncc(F)c(Nc3ccc4c(c3)NC(=O)[C@@H](C)O4)n2)cc1Cl` [compound 1139], the IC50 in the assay on A549 cells (Homo sapiens) was at most 20 µM; in the assay with H1299 cells (Homo sapiens, NCI-H1299) it was over 20 µM.

Consider `COc1cc(C)c(Nc2ncc(F)c(Nc3ccc4c(c3)NC(=O)[C@H](C)O4)n2)cc1Cl` [compound 1140], for which the IC50 with A549 cells (Homo sapiens) is over 20 µM; in the assay with H1299 cells (Homo sapiens, NCI-H1299), over 20 µM. Regarding `COc1cc(OC)c(Nc2ncc(F)c(Nc3ccc4c(c3)NC(=O)[C@H](C)O4)n2)cc1Cl` [compound 1141], the IC50 with A549 cells (Homo sapiens) is over 20 µM; in the assay with H1299 cells (Homo sapiens, NCI-H1299), over 20 µM. With `COc1cc(C)c(Nc2ncc(F)c(Nc3ccc4c(c3)NC(C)(C)CO4)n2)cc1Cl` [compound 1142], the IC50 was at most 20 µM with A549 cells (Homo sapiens) and over 20 µM in the assay on H1299 cells (Homo sapiens, NCI-H1299). The like results for `O=C1Nc2ccc(Nc3nc(Nc4cccc(-c5ncco5)c4)ncc3F)cc2OC1CCO` (stereo not shown) [compound 1145] were, in that order, at most 20 µM and at most 20 µM. Turning to `Cc1ccc(CNc2ncc(F)c(Nc3ccc4c(c3)OCCO4)n2)cc1Cl` [compound 1146], the IC50 with A549 cells (Homo sapiens) was at most 20 µM; in the assay on H1299 cells (Homo sapiens, NCI-H1299) it was over 20 µM.

`CC(Nc1ncc(F)c(Nc2ccc3c(c2)OCCO3)n1)c1ccccc1` (stereo not shown) [compound 1147]: the IC50 in the assay with A549 cells (Homo sapiens) is at most 20 µM; in the assay with H1299 cells (Homo sapiens, NCI-H1299), at most 20 µM. Regarding `COc1ccc(Nc2nc(Nc3cc(OC)c(Cl)cc3OC)ncc2F)cc1Cl` [compound 1158], the IC50 in the assay with A549 cells (Homo sapiens) was at most 20 µM; with H1299 cells (Homo sapiens, NCI-H1299), at most 20 µM. For `COc1cc(Nc2nc(Nc3cc(OC)c(Cl)cc3OC)ncc2F)cc(OC)c1` [compound 1159], the IC50 with A549 cells (Homo sapiens) is at most 20 µM; with H1299 cells (Homo sapiens, NCI-H1299), at most 20 µM.

For `CNc1ncc(F)c(Nc2cc(Cl)c(OC)c(Cl)c2)n1` [compound 1160], the IC50 was at most 20 µM in the assay with A549 cells (Homo sapiens) and at most 20 µM in the assay on H1299 cells (Homo sapiens, NCI-H1299).

In the case of `COc1cc(C(N)=O)c(Nc2ncc(F)c(N(C)C3CCC3)n2)cc1OC(=O)c1ccccc1` [compound 1162], the IC50 in the assay with A549 cells (Homo sapiens) was at most 20 µM; in the assay with H1299 cells (Homo sapiens, NCI-H1299), at most 20 µM. For the compound `COc1cc(C(N)=O)c(Nc2ncc(F)c(NC3CCCC3)n2)cc1OC(=O)c1ccccc1` [compound 1163], the IC50 with A549 cells (Homo sapiens) is at most 20 µM; in the assay with H1299 cells (Homo sapiens, NCI-H1299), at most 20 µM. Consider `COc1cc(C(N)=O)c(Nc2ncc(F)c(NC3CCCCC3)n2)cc1OC(=O)c1ccccc1` [compound 1164], for which the IC50 in the assay with A549 cells (Homo sapiens) is at most 20 µM; in the assay on H1299 cells (Homo sapiens, NCI-H1299) it was at most 20 µM.
